# Assays:
# Format in all cases: cell-based, human
# [1] = system: UVA-irradiated HaCaT cells; assay: Intracellular ROS generation (HDCF-DA / DCF fluorescence)
# Method: An exposure of the UVA will stimulate cells generating ROS. […] The HDCF-DA is a lipid-soluble fluorescent dye and has a cell membrane permeability. The HDCF-DA will bind to intracellular esterases to form a non-fluorescent 2′,7′-dichlorofluorescin (DCFH). The DCFH is subsequently oxidated by H2O2 to form a fluorescent 2′,7′-dichlorofluorescein (DCF), and then accumulated in a mitochondria. […] The HaCaT cells are subsequently incubated with or without the ergothioneine, and then maintained at 37° C. in a humidified atmosphere of 5% CO2 for 24 hours, wherein the concentration of the ergothioneine is 500 nM. Next, the HaCaT cells are washed with PBS three times, and then irradiated with the UVA (15 J/cm^2). After the UVA irradiation, the PBS is replaced with 1 mL of HDCF-DA (10 μM) in each well to react at 37° C. in the dark for 30 minutes. After the reaction, the fluorescent dye is removed, and the HaCaT cells are washed with PBS thrice to remove the remaining fluorescent dye. The intracellular ROS, as indicated by DCF fluorescence, is measured with the fluorescence microscope and photographed.
# [2] = system: UVA-irradiated HaCaT cells; assay: Total glutathione (GSH) content, DTNB method; conditions: 125-500 nM 24 hours prior to 15 J/cm^2 UVA, 4 hours; dose-dependent
# Description: A glutathione (GSH), the antioxidant in animal cells, can protect DNA against external oxidative stresses. Given that the ergothioneine treatment to the HaCaT cells can reduce the DNA damage of the HaCaT cells; this example next investigates the UVA-induced oxidative damage by determining a total GSH content of the HaCaT cells treated with the ergothioneine or the UVA irradiation. A glutathione disulfide (GSSG) is an oxidized form of the GSH, and the GSSG can be reduced to the GSH by a glutathione reductase. Antioxidant enzymes, such as glutathione peroxidases and peroxiredoxins, generate glutathione disulfide during the reduction of peroxides such as hydrogen peroxide (H2O2) and organic hydroperoxides (ROOH). The GSH generates a yellow-colored 5-thio-2-nitrobenzoic acid (TNB) and a […] GSTNB (between GSH and TNB) during the reaction of 5,5′-dithiobis-(2-nitrobenzoic acid) (DTNB), wherein the content of (GSSG+GSH) is the rate determining factor of color production in aforementioned reactions. The rate of the yellow-colored TNB production is directly proportional to the concentration of (GSSG+GSH) in a sample. Thus, measurement of the absorbance of the TNB provides an accurate estimation of the amount of total glutathione (GSSG+GSH) in the sample. […] The net absorbance at 405 nm yields an accurate amount of the total glutathione in the sample.
# [3] = system: antioxidant response element (ARE); assay: ARE luciferase gene reporter assay; conditions: HaCaT cells treated for 4 hours, vs untreated
# Description: The Nrf2 binds to the small Maf after translocating into the nucleus. […] Given that the ergothioneine treatment to the HaCaT cells can promote the Nrf2 translocating into the nucleus; this example next investigates whether the ARE transcriptional activity can be started by using a luciferase gene reporter assay. The luciferase gene reporter assay is transfected a plasmid containing the ARE gene and a luciferase gene into the HaCaT cells, wherein the luciferase gene is a reporter gene. An internal standard of the luciferase gene reporter assay is β-galactosidase, and a luminescence intensity is measured by Dual Light Kit (Applied Biosystems).
# [4] = system: Nrf2 knockdown HaCaT cells; assay: ROS generation in siRNA-transfected HaCaT cells; conditions: 500 nM 24 hours
# Method: (§1) The siRNA transfection includes steps as follows. The HaCaT cells are seeded in a 6-well plate with 4×10^5 cells/well and then maintained at 37° C. in the humidified atmosphere of 5% CO2 untill the time of the transfection. The day after reaching 40-60% confluence, the culture medium is replaced with 1 mL of FBS-free and antibiotic-free culture medium in each well, and the HaCaT cells are transfected with a siNrf2 or a control siRNA by using Lipofectamine 2000 (Invitrogen, U.S.A.) for 4-6 hours. After the incubation for 4-6 hours, the HaCaT cells are washed with the culture medium supplemented with 10% FBS 2-3 times, and then cultured in the culture medium supplemented with 10% FBS for 12-16 hours.
# We further measure the amount of ROS generation in the HaCaT cells treated with the ergothioneine prior to 15 J/cm^2 UVA irradiation. The HaCaT cells are incubated with 500 nM ergothioneine for 24 hours after the siRNA transfection. After the incubation, the HaCaT cells are treated with or without the UVA irradiation (15 J/cm^2) for 4 hours, and then the HaCaT cells are subjected to detect the ROS generation.
# [5] = system: Nrf2 knockdown HaCaT cells; assay: TUNEL apoptosis in siRNA-transfected HaCaT cells
# Method: as §1
smiles,measurement,setting,value
"C[N+](C)(C)[C@@H](Cc1c[nH]c(=S)[nH]1)C(=O)[O-] [ergothioneine, 2-mercapto histidine trimethylbetain]",DCF fluorescence (UVA-induced ROS generation),[1]; 500 nM 24 hours prior to 15 J/cm^2 UVA,ignificantly decreased
same,ROS generation,"[1]; 500 nM alone, no UVA",non-effect
same,total glutathione level,[2],increased
same,luciferase activity derived from the ARE promoter,[3],increased
same,ROS generation,"[4]; Nrf2 siRNA, UVA 15 J/cm^2",unable to decrease the ROS generation
same,ROS generation,"[4]; control siRNA, UVA 15 J/cm^2, vs UVA alone",significantly reduced
same,UVA-induced apoptosis (TUNEL),"[5]; Nrf2 siRNA, ergothioneine pretreatment, UVA",unable to improve the UVA-induced apoptosis
same,apoptosis (TUNEL),"[5]; control siRNA, ergothioneine prior to UVA, vs UVA alone",significantly decreased
